Reference: patent US12454509B2, “Local anesthetics with selective-sensory nerve blockade” (Children's Medical Center Corporation, priority 2019, dated 2025)
Several values for one entry are separate records, joined by “and”; a condition that tells them apart may be missing. Identical values can stand only once.

Legend:
[1] = system: sciatic nerve; experiment: Sciatic nerve block in rats: duration of thermal nociceptive (sensory) block, modified hotplate test; type: in vivo, rat; conditions: rat sciatic nerve injection 0.3 mL
Excerpt: (§1) Sciatic Nerve Block and Neurobehavioral Testing. Animals were cared for in compliance with protocols approved by the Children's Hospital Animal Care and Use Committee, and the Massachusetts Institute of Technology Committee on Animal Care, which conformed to guidelines of the International Association for the Study of Pain. Adult male Sprague-Dawley rats (Charles River Laboratories) weighing 320-450 g were housed in groups, in a 6 AM to 6 PM light-dark cycle. Under brief isoflurane-oxygen anesthesia, a 23G needle was introduced postero-medial to the greater trochanter, until bone was contacted, and 0.3 mL of test solution was injected over the sciatic nerve. Thermal nociception was assessed by a modified hotplate test, and motor function via a weight-bearing test. […] Motor strength was assessed with a weight-bearing test. In brief, the animal was held over a digital balance such that it could bear weight with 1 hind paw at a time. The maximum weight that it could bear was recorded. The duration of motor blockade was defined as the time for weight bearing to return halfway to normal from maximal block. The halfway point for each rat was defined as […].

[2] = system: sciatic nerve; experiment: Sciatic nerve block in rats: duration of motor block, weight-bearing test; type: in vivo; conditions: rat sciatic nerve injection 0.3 mL
Excerpt: as §1

[3] = system: PC12 cells; experiment: Cytotoxicity in PC12 cells; type: cell-based, rat; conditions: for cytotoxicity compared with ropivacaine and bupivacaine (in words): FIG. 1 / Table 2; for IC50: Rattus norvegicus, PC-12, cytotoxicity, exposure up to 24 h
Description: (§2) C2C12 Mouse myoblasts [American Type Culture Collection (ATCC) CRL-1772] were cultured to proliferate in DMEM supplemented with 20% FBS and 100 Penicillin Streptomycin. Cell culture supplies were obtained from Invitrogen, unless otherwise noted. Cells were plated at 50,000 cells per mL in DMEM with 2% horse serum and 1% Penn Strep, and left to differentiate into myotubules for 10-14 days. During differentiation, media were exchanged every 2 to 3 days. Cell viability and proliferation were studied after exposures to drugs for up to 24 h. PC12 cells (ATCC, CRL-1721) originating from rat adrenal gland pheochromocytoma were grown in 24-well tissue culture dishes (CellBind; Corning) with F-12K (ATCC) supplemented with 12.5% horse serum (Gibco), 2.5% FBS (Gibco), and 1% Penn Strep (Sigma). For neuronal induction (PC12), cells were seeded at a relative low density of 5×10^4 cells/cm2 and 50 ng/mL NGF was added 24 h after seeding. Cell viability and proliferation were evaluated as for C2C12 cells. Experiments with PC12 cells were conducted for up to 24 hours.

[4] = system: C2C12 Mouse myoblasts; experiment: Cytotoxicity in C2C12 myotubules; type: cell-based; conditions: C2C12 cells; for cytotoxicity compared with ropivacaine and bupivacaine (in words): FIG. 2 / Table 2; for IC50: Mus musculus, cytotoxicity, exposure up to 24 h
Description: as §2

[5] = biological target: hERG (Homo sapiens, UniProt Q12809); experiment: Whole-cell patch clamp, hERG current in stably transfected HEK cells; conditions: for hERG current amplitude, percent reduction: individual cell (raw data)
Description: (§3) These experiments were designed to examine the acute effects of 4Sa (ZYK2312-1), 4Sb (ZYK2312-2), and bupivacaine on hERG and peak Nav1.5 currents recorded from stably transfected HEK cells.
(§4) Experimental Methods: Currents were measured using the whole-cell variant of the patch clamp method. Glass pipettes were pulled from borosilicate glass by a horizontal puller (Sutter Instruments, USA). Pipette tip resistance was approximately 1 to 2 MΩ when filled with internal solutions. Series resistance was compensated electronically by approximately 60-80%. Bath temperature was measured by a thermistor placed near the cell under study. An Axopatch 1-B amplifier (Axon Instruments, Foster City, CA) was used for whole-cell voltage clamping. Creation of voltage clamp pulses and data acquisition was controlled by a computer running pClamp software (ver 9.2 Axon Instruments). After rupture of the cell membrane (entering whole-cell mode), current kinetics and amplitudes were allowed to stabilize as the cell was dialyzed with internal solution and paced every 5 seconds (typically 2 to 3 minutes). Peak INa was elicited using a pulse pattern with fixed amplitudes (conditioning prepulse: −120 mV for 50 ms; depolarizing test step to −30 mV for 20 ms). hERG current was elicited with a 500 ms pulse to +10 mV followed by a 500 ms pulse to −40 mV (holding potential=[…]). Cells were perfused at each testing concentration until a steady-state was reached.
(§5) Raw data and mean±SEM are given. Data are presented as percent reduction of current amplitude. […] Each cell served as its own control. A nonlinear curve-fitting routine was utilized to fit a three-parameter Hill equation to the results using MicroCal Origin, version 6.0 software. The equation is:
(§6) [formula] where Vmax=100 and k and n are unconstrained variables.

[6] = biological target: peak Nav1.5 (Homo sapiens, UniProt Q14524); experiment: Whole-cell patch clamp, peak Nav1.5 current in stably transfected HEK cells
Description: as §3, §4, §5, §6

peak Nav1.5, sequence (Q14524 whole entry): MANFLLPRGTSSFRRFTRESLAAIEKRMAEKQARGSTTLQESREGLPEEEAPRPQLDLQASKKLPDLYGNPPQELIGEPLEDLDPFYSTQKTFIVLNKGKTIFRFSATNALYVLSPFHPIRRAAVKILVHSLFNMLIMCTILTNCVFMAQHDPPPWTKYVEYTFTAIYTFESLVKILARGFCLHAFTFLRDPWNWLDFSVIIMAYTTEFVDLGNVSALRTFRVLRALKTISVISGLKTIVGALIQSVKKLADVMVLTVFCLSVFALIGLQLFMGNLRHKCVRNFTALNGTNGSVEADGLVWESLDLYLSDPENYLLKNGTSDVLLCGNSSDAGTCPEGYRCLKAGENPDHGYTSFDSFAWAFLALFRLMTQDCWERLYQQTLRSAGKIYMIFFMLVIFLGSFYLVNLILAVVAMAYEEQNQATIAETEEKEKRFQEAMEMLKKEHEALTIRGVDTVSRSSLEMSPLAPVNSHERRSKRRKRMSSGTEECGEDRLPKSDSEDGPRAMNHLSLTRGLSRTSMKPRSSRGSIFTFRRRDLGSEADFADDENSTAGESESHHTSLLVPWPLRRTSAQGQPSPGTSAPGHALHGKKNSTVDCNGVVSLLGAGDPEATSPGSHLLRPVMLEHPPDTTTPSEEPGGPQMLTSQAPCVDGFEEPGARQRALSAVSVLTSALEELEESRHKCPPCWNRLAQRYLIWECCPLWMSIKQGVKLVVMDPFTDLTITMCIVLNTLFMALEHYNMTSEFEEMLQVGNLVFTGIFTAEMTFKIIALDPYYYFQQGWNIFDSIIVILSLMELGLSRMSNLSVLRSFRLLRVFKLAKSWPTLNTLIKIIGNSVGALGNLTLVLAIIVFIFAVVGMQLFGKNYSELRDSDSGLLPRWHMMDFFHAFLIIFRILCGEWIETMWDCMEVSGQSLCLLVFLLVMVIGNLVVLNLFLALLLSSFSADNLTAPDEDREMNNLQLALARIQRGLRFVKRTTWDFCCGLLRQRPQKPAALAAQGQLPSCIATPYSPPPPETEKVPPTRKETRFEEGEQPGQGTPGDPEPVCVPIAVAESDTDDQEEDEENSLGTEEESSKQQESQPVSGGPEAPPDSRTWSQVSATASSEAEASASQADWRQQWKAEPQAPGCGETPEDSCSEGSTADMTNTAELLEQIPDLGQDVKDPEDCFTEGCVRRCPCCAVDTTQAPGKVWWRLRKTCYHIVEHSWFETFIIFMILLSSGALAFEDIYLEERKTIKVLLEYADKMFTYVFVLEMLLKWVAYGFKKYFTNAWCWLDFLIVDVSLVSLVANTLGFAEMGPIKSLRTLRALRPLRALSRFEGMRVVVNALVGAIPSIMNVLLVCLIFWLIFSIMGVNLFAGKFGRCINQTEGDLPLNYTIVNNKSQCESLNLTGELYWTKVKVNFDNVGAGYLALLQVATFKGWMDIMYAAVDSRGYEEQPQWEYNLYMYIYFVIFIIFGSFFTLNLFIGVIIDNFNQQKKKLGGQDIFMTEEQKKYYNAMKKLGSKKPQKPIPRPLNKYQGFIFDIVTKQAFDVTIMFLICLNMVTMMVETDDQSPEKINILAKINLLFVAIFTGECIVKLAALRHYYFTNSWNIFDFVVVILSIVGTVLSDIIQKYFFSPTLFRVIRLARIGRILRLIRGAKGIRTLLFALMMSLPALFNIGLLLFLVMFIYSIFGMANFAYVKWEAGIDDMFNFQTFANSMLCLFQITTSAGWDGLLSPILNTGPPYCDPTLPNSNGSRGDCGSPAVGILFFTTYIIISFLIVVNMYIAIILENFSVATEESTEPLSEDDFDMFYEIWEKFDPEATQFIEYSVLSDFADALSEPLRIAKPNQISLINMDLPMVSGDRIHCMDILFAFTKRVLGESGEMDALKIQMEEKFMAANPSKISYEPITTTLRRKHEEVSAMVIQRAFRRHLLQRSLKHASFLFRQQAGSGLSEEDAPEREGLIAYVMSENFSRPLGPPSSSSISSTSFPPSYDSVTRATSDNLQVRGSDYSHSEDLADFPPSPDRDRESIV
hERG, sequence (Q12809 whole entry): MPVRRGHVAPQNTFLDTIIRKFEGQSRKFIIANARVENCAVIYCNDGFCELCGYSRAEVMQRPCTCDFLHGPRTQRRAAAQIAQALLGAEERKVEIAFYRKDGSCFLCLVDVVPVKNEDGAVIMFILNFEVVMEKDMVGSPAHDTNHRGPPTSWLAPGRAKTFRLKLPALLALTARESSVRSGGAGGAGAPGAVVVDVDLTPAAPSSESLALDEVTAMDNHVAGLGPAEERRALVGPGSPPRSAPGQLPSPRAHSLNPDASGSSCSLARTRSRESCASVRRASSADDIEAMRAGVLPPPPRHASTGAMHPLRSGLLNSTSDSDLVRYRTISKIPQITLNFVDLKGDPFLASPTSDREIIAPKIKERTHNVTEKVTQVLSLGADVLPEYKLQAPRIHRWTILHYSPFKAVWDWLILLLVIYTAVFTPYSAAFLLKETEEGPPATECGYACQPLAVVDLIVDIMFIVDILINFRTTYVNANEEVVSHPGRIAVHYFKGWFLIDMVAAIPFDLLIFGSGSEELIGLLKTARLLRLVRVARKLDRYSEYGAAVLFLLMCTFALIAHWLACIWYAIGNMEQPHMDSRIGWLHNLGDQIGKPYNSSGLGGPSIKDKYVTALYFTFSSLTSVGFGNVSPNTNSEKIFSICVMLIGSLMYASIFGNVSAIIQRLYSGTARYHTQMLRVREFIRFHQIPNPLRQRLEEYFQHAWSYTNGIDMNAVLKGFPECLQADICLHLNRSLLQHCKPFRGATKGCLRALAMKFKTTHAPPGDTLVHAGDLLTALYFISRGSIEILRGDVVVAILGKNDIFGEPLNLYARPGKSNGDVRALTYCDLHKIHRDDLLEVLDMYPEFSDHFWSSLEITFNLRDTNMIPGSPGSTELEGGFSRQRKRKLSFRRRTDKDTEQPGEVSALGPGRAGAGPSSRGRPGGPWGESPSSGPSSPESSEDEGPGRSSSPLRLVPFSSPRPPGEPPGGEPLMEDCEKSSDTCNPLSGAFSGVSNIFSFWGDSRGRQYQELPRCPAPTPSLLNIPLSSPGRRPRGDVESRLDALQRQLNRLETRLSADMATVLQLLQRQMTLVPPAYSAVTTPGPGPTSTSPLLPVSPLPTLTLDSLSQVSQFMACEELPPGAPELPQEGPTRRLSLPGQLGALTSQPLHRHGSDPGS

| SMILES | Block Duration (min) Sensory ([1]; dose conc 10 mM) [min] | Block Duration (min) Motor ([2]; dose conc 10 mM) [min] | cytotoxicity compared with ropivacaine and bupivacaine (in words) [3] | cytotoxicity compared with ropivacaine and bupivacaine (in words) [4] | Block Duration (min) Sensory ([1]; dose conc 15 mM) [min] | Block Duration (min) Motor ([2]; dose conc 15 mM) [min] | IC50 [3] [µM] | IC50 [4] [µM] | Block Duration (min) Sensory ([1]; dose conc 5 mM) [min] | Block Duration (min) Motor ([2]; dose conc 5 mM) [min] | also measured |
| --- | --- | --- | --- | --- | --- | --- | --- | --- | --- | --- | --- |
| CCCC(=O)OC[N+]1(CCC)CCCC[C@H]1C(=O)Nc1c(C)cccc1C.[Cl-] (stereo in doubt) [Compound 11S, 1-((Butyryloxy)methyl)-2-((2,6-dimethylphenyl)carbamoyl)-1-propylpiperidin-1-ium chloride] | 135 ± 56 | 90 ± 44 | significantly less cytotoxic than ropivacaine and bupivacaine | significantly less cytotoxic than ropivacaine and bupivacaine | – | – | – | – | – | – | – |
| CCCCN1CCCCC1C(=O)Nc1c(C)cccc1C (stereo not shown) [Bupivacaine, bupivacaine, reference compound] | 129 ± 21 | 140 ± 15 | – | – | 215 ± 31 | 222 ± 30 | 870 | 720 | – | – | IC50 [5]: 16.4 µM; hERG current amplitude, percent reduction ([5]; 1 μM): 19.8% and 9.1% and 10.5%; hERG current amplitude, percent reduction, mean ± SE ([5]; 1 μM): 13.1 ± 3.4%; hERG current amplitude, percent reduction ([5]; 10 μM): 43.0% and 45.0% and 42.1%; hERG current amplitude, percent reduction, mean ± SE ([5]; 10 μM): 43.4 ± 0.9%; hERG current amplitude, percent reduction ([5]; 100 μM): 76.3% and 70.7% and 78.9%; hERG current amplitude, percent reduction, mean ± SE ([5]; 100 μM): 75.3 ± 2.4%; IC50 [6]: 9.8 µM; peak Nav1.5 current amplitude, percent reduction, mean ± SE ([6]; 1 μM): 13.5 ± 3.1%; peak Nav1.5 current amplitude, percent reduction, mean ± SE ([6]; 10 μM): 49.0 ± 1.0%; peak Nav1.5 current amplitude, percent reduction, mean ± SE ([6]; 100 μM): 90.7 ± 1.5%; inhibition at 10 µM ([6]; HEK293, read-out: peak Nav1.5 current amplitude, percent reduction, 10 μM, individual cell (raw data)): 50.8%; inhibition at 100 µM ([6]; HEK293, read-out: peak Nav1.5 current amplitude, percent reduction, 100 μM, individual cell (raw data)): 89.2% |
| Br.CC[N+](CC)(CC(=O)Nc1c(C)cccc1C)CC(=O)OC [Compound 1, 2-((2,6-Dimethylphenyl)amino)-N,N-diethyl-N-(2-methoxy-2-oxoethyl)-2-oxoethan-1-aminium bromide] | – | – | significantly less cytotoxic than ropivacaine and bupivacaine | significantly less cytotoxic than ropivacaine and bupivacaine | – | – | – | – | – | – | – |
| CCCC[N+]1(COC(C)=O)CCCCC1C(=O)Nc1c(C)cccc1C.[Br-] (stereo not shown) [Compound 9, 1-(Acetoxymethyl)-1-butyl-2-((2,6-dimethylphenyl)carbamoyl)piperidin-1-ium bromide] | 120 ± 53 | 75 ± 39 | – | – | 125 ± 51 | 85 ± 36 | – | – | 65 ± 23 | 25 ± 19 | – |
| CCC[N+]1(COC(C)=O)CCCC[C@H]1C(=O)Nc1c(C)cccc1C.[Br-] (stereo partly shown) [Compound 10S, 1-(Acetoxymethyl)-2-((2,6-dimethylphenyl)carbamoyl)-1-propylpiperidin-1-ium bromide] | 105 ± 53 | 65 ± 34 | significantly less cytotoxic than ropivacaine and bupivacaine | significantly less cytotoxic than ropivacaine and bupivacaine | – | – | – | – | 55 ± 23 | 15 ± 15 | – |
| CCC[N@@+]1(CC(=O)NC)CCCC[C@H]1C(=O)Nc1c(C)cccc1C [Compound 26Sa, 2-((2,6-dimethylphenyl)carbamoyl)-1-(2-(methylamino)-2-oxoethyl)-1-propyl-1-piperidin-2-ylium bromide] | 180 | 140 | significantly less cytotoxic than ropivacaine and bupivacaine | significantly less cytotoxic than ropivacaine and bupivacaine | – | – | 1200 | 1000 | – | – | – |
